Results on 16 molecules are retold here after patent publication US9737509B1, “Antimicrobial compositions, methods of use, and methods of treatment of infections” (University of South Florida, priority 2015, dated 2017).

For series [1], the system named is L. donovani axenic amastigotes. The series is described as follows: L. donovani axenic amastigote proliferation, colorimetric assay. The settings on record: for activity in the axenic amastigote L. donovani assay (in words): screening / confirmation; for IC50: Leishmania donovani, L. donovani axenic amastigotes. Type of series: cell-based, Leishmania donovani. The protocol: As part of an ongoing search for potential treatments for leishmaniasis, a screening campaign against available compounds was conducted using axenic amastigotes of Leishmania donovani, a protozoan that is known to cause visceral leishmaniasis (VL). […] Prior to taking on the development of novel analogs, we sought to synthesize an analog to confirm that the activity was readily reproducible. […] As a byproduct, compound 2a, which arose from the hydrolysis of the product amide to the corresponding carboxylic acid (not shown) was also isolated and evaluated (vide infra).
(§1) With a source of these compounds in hand, their activity against Leishmania donovani cells was evaluated in two different assays. L. donovani axenic amastigotes were generated from promastigotes and maintained in an appropriate medium such that their proliferation could be evaluated using a colorimetric assay. Additionally, macrophages were plated into a 96-well plate and a medium containing L. donovani was added and allowed to infect the macrophage cells. Subsequent addition of the compound to be evaluated was added to the wells prior to incubation and evaluation. Finally, a counterscreen for cytotoxicity was conducted using a J774 murine mouse cell line.

Series [2] can be described thus: Counterscreen for cytotoxicity. Type of series: cell-based. The settings on record: mouse, J774 cells (murine macrophage cell line). The protocol: as §1
Series [3] concerns L. donovani infected macrophage cells. As to the kind of experiment: L. donovani infected macrophage assay. It counts as cell-based. The settings on record: Leishmania donovani, macrophages infected with L. donovani. The protocol: as §1

Values after ≈ are worked out from the molar mass of the structure shown. Where only a bound is given, the exact number is not on record here.

Regarding `Cc1nn(-c2ccc(C(N)=O)c(N[C@H]3CC[C@H](O)CC3)c2)c2c1C(=O)CC(C)(C)C2` [Compound 1, reference compound], the “activity in the axenic amastigote L. donovani assay (in words)” value in series [1] is given as “most active”.

Turning to `COCCCNc1cc(-n2nc(C)c3c2CC(C)(C)CC3=O)ccc1C(N)=O` [Compound 2], the IC50 in series [2] is 3.52 mg/L (≈ 9.16 µM); in series [3] it was 0.879 mg/L (≈ 2.29 µM); in series [1], 0.646 mg/L (≈ 1.68 µM). Moreover, in series [1], the “activity in the axenic amastigote L. donovani assay (in words)” value is “equally active as 1”.

On to `COCCCNc1cc(-n2nc(C)c3c2CN(Cc2ccccc2)CC3=O)ccc1C(N)=O` [Compound 3a], for which the IC50 in series [2] was greater than 50 mg/L; in series [3] it was 6.33 mg/L (≈ 14.1 µM); in series [1], 2.29 mg/L (≈ 5.11 µM).

On to `COCCCNc1cc(-n2nc(C)c3c2CNCC3=O)ccc1C(N)=O` [Compound 3b], for which the IC50 was greater than 50 mg/L in series [2], greater than 10 mg/L in series [3] and 3.9 mg/L (≈ 10.9 µM) in series [1].

`COCCCNc1cc(-n2nc(C)c3c2CN(C(C)=O)CC3=O)ccc1C(N)=O` [Compound 3c]: the values for the IC50 in series [2], in series [3] and in series [1] were greater than 50 mg/L, 1.06 mg/L (≈ 2.65 µM) and 13.9 mg/L (≈ 34.8 µM), respectively.

As to `CCC(=O)N1CC(=O)c2c(C)nn(-c3ccc(C(N)=O)c(NCCCOC)c3)c2C1` [Compound 3d], the IC50 in series [2] is greater than 50 mg/L; in series [3], 3.54 mg/L (≈ 8.55 µM); in series [1] it was 6.42 mg/L (≈ 15.5 µM).

`COCCCNc1cc(-n2nc(C)c3c2CN(C(=O)C(C)C)CC3=O)ccc1C(N)=O` [Compound 3e]: the results for the IC50 in series [2], in series [3] and in series [1] were 37.3 mg/L (≈ 87.3 µM), 3.54 mg/L (≈ 8.28 µM) and 1.9 mg/L (≈ 4.45 µM), respectively.

Turning to `COCCCNc1cc(-n2nc(C)c3c2CN(C(=O)COC)CC3=O)ccc1C(N)=O` [Compound 3f], the IC50 was greater than 50 mg/L in series [2], 3.57 mg/L (≈ 8.31 µM) in series [3] and 4.45 mg/L (≈ 10.4 µM) in series [1].

Take `COCCCNc1cc(-n2nc(C)c3c2CN(C(=O)C2CCCC2)CC3=O)ccc1C(N)=O` [Compound 3g]: the IC50 was greater than 50 mg/L in series [2], 1.52 mg/L (≈ 3.36 µM) in series [3] and 2.99 mg/L (≈ 6.59 µM) in series [1].

Take `COCCCNc1cc(-n2nc(C)c3c2CN(C(=O)c2ccc(C)cc2)CC3=O)ccc1C(N)=O` [Compound 3h]: the values for the IC50 in series [2], in series [3] and in series [1] were 26.3 mg/L (≈ 55.3 µM), 1.75 mg/L (≈ 3.69 µM) and 2.6 mg/L (≈ 5.48 µM), respectively.

With `COCCCNc1cc(-n2nc(C)c3c2CN(S(C)(=O)=O)CC3=O)ccc1C(N)=O` [Compound 3i], the IC50 in series [2] is 25.5 mg/L (≈ 58.6 µM); in series [3], greater than 5.38 mg/L; in series [1] it was greater than 20 mg/L.

As for `COCCCNc1cc(-n2nc(C)c3c2CN(C(=O)NCc2ccccc2)CC3=O)ccc1C(N)=O` [Compound 3j], the values for the IC50 in series [2], in series [3] and in series [1] were greater than 50 mg/L, greater than 10 mg/L and greater than 20 mg/L, respectively.

Regarding `COCCCNc1cc(-n2nc(C)c3c2CN(C(N)=O)CC3=O)ccc1C(N)=O` [Compound 3k], the IC50 in series [2] was greater than 50 mg/L; in series [3], greater than 10 mg/L; in series [1] it was greater than 20 mg/L.

Regarding `COCCCNc1cc(NC2CC(C)(C)Cc3ncccc32)ccc1C(N)=O` (centres unmarked) [Compound 6], the IC50 in series [2] amounted to 6.75 mg/L (≈ 17.6 µM); in series [3] it was 5.38 mg/L (≈ 14.1 µM); in series [1], 2.55 mg/L (≈ 6.67 µM).

In the case of `Cc1nn(-c2ccc3c(N)ncnc3c2)c2c1C(=O)CC(C)(C)C2` [Compound 9c], the IC50 in series [2] was greater than 50 mg/L; in series [3], 1.33 mg/L (≈ 4.15 µM); in series [1] it was 2.42 mg/L (≈ 7.53 µM).

Consider `COCCCNc1cc(-n2nc(C)c3c2CCCC3=O)ccc1C(N)=O` [Compound 10], for which the IC50 worked out at 12.6 mg/L (≈ 35.2 µM) in series [2], 0.65 mg/L (≈ 1.82 µM) in series [3] and 2.65 mg/L (≈ 7.45 µM) in series [1].

What is called IC50 is the midpoint of a concentration-inhibition curve. Read a high IC50 as a need for much substance.
